# In patent US6656509B1, “Combination of selenium-containing compounds with cytostatics” (Biosyn Arzneimittel GmbH, priority 1998, dated 2003):
# Tests used:
# MAXF MCF7X = assay: clonogenic assay (colony forming assay); format: cell-based, human; details: MAXF MCF7X/28; X218AM
# Procedure: (§1) Solid human tumor xenografts growing subcutaneously in serial passages in thymus-aplastic nude mice (NMRI nu/nu strain, obtained from our own breeding facility) were removed under sterile conditions, the cells were mechanically disaggregated and subsequently incubated with an enzyme cocktail consisting of collagenase (1.2-1.8 U/ml, Worthington), DNAse (375 U/ml, Boehringer Mannheim) und hyaluronidase (29 U/ml, Boehringer Mannheim) in RPMI 1640 at 37° C. for 30 minutes. The cell mixture was passed through sieves of 200 μm and 50 μm mesh size and washed thereafter twice with PBS. The percentage of viable cells was determined in a Neubauer counting chamber using trypan blue exclusion.
# (§2) The clonogenic assay was performed according to a modified two-layer soft agar assay described by Hamburger and Salmon (Hamburger and Salmon, Science, 197: 461463, 1977). The bottom layer consisted of 0.2 ml Iscoves' Modified Dulbecco's Medium with 20% fetal calf serum and 0.75% agar. 8×10^3 to 1,6×10^4 cells were added to 0.2 ml of the same culture medium together with 0.4% agar and placed in already coated 24-multiwell dishes. Test substances were applied by continuous exposure (drug overlay) in 0.2 ml medium. Every dish included six control wells containing the vehicle- and drug-treated groups in triplicate at six concentrations.
# (§3) Cultures were incubated at 37° and 7% CO2 in a humidified atmosphere for 5 to 15 days (depending on the doubling time of the tumor stem cells) and monitored for colony growth using an inverted microscope. Within this period, in vitro tumor growth led to the formation of colonies with a diameter of ≧50 μm. At the time of maximum colony formation counts were performed with an automatic image analysis system (OMNICOM Fas IV, Biosys GmbH). 24 hours prior to this assay, vital colonies were stained with a sterile aqueous solution of 2-(4-iodophenyl)-3-(4-nitrophenyl)-5-phenyltetrazolium chloride (1 mg/ml, 100 μI/well). Drug effects were expressed in terms of the percentage of surviving cells, obtained by comparison of the mean number of colonies in the treated plates with the mean colony count of the untreated controls (test-versus-control-group value, T/C=colony countTreated Group*100/colony countControl Group).
# (§4) Coefficient of variation in the control group ≦50%. IC50 and IC70 values were determined by plotting compound concentration versus cell survival rate. Mean IC50 and IC70 values were calculated according to the formula: [formula]
# (§5) with x=specific tumor xenograft and n=total number of tumor xenografts studied. If an IC50 or IC70 value could not be determined within the examined dose range, the lowest or highest concentration studied was used for the calculation.
# LXFL 529 = assay: clonogenic assay (colony forming assay); format: cell-based, human; details: LXFL 529/18, X182AM
# Procedure: as §1, §2, §3, §4, §5
smiles,measurement,setting,value
O=[Se]([O-])[O-].[Na+].[Na+] [sodium selenite],Test/control (%) at drug concentration [μM] 1.,MAXF MCF7X,78%
same,Test/control (%) at drug concentration [μM] 10.,MAXF MCF7X,97%
same,Test/control (%) at drug concentration [μM] 100.,MAXF MCF7X,0%
same,Test/control (%) at drug concentration [μM] .001,MAXF MCF7X,93%
same,Test/control (%) at drug concentration [μM] .01,MAXF MCF7X,85%
same,Test/control (%) at drug concentration [μM] .1,MAXF MCF7X,90%
same,Test/control (%) class at drug concentration [μM] 1.,MAXF MCF7X,− (− (T/C ≧ 50%))
same,Test/control (%) class at drug concentration [μM] 10.,MAXF MCF7X,− (− (T/C ≧ 50%))
same,Test/control (%) class at drug concentration [μM] 100.,MAXF MCF7X,+++ (+++ (T/C ≦ 10%))
same,Test/control (%) class at drug concentration [μM] .001,MAXF MCF7X,− (− (T/C ≧ 50%))
same,Test/control (%) class at drug concentration [μM] .01,MAXF MCF7X,− (− (T/C ≧ 50%))
same,Test/control (%) class at drug concentration [μM] .1,MAXF MCF7X,− (− (T/C ≧ 50%))
same,Test/control (%) at drug concentration [μM] 1.,LXFL 529,61%
same,Test/control (%) at drug concentration [μM] 10.,LXFL 529,9%
same,Test/control (%) at drug concentration [μM] 100.,LXFL 529,0%
same,Test/control (%) at drug concentration [μM] .001,LXFL 529,90%
same,Test/control (%) at drug concentration [μM] .01,LXFL 529,78%
same,Test/control (%) at drug concentration [μM] .1,LXFL 529,72%
same,Test/control (%) class at drug concentration [μM] 1.,LXFL 529,− (− (T/C ≧ 50%))
same,Test/control (%) class at drug concentration [μM] 10.,LXFL 529,+++ (+++ (T/C ≦ 10%))
same,Test/control (%) class at drug concentration [μM] 100.,LXFL 529,+++ (+++ (T/C ≦ 10%))
same,Test/control (%) class at drug concentration [μM] .001,LXFL 529,− (− (T/C ≧ 50%))
same,Test/control (%) class at drug concentration [μM] .01,LXFL 529,− (− (T/C ≧ 50%))
same,Test/control (%) class at drug concentration [μM] .1,LXFL 529,− (− (T/C ≧ 50%))
same,Test/control (%) at drug concentration [μM] 10.,LXFL 529; listed as selenium,< 30%
